Measured values from ChEMBL document CHEMBL3351573, “Synthesis and cholinesterase inhibition of cativic acid derivatives” (Bioorg Med Chem, 2014).

Legend:
[1] = Selectivity index, ratio of IC50 for horse serum BChE to IC50 for Torpedo californica AChE
Acetylcholinesterase [2] = molecular target: T1, Acetylcholinesterase (Torpedo californica, UniProt P04058)
Description: Inhibition of Torpedo californica AChE by spectrophotometry based Ellman's method

Cholinesterase = Cholinesterase (Equus caballus, UniProt P81908)
Description: Inhibition of horse serum BChE by spectrophotometry based Ellman's method

[3] = molecular target: Acetylcholinesterase (Homo sapiens) (UniProt P22303); assay: Inhibition of AChE in human SH-SY5Y cells assessed as enzyme activity at 5 uM after 1 hr by Ellman's method; assay type: cell-based; set-up: scale not given: the % may be the effect or the level left
Acetylcholinesterase (Homo sapiens), sequence (P22303 whole entry): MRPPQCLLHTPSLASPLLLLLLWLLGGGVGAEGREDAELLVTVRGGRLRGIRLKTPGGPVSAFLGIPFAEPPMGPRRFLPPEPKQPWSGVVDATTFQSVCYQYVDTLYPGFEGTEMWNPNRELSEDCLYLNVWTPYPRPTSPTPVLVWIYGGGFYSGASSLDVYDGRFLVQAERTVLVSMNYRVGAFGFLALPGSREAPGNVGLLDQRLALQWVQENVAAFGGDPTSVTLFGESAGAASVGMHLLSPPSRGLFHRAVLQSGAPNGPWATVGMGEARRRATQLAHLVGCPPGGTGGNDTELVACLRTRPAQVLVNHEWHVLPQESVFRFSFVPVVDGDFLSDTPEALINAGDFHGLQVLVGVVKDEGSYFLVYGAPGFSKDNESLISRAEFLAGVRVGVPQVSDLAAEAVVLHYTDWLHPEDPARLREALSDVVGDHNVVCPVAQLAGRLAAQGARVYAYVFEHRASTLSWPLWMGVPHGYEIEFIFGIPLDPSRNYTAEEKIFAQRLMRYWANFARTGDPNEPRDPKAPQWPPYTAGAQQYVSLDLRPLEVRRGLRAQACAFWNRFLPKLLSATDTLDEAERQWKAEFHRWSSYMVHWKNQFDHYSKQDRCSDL

[4] = Cytotoxicity against human SH-SY5Y cells assessed as change in cell morphology at 1 to 5 uM after 1 hr to 24 hrs by phase contrast microscopy; assay type: cell-based
Acetylcholinesterase [5] = molecular target: T1, Acetylcholinesterase; assay: Mixed type inhibition of Torpedo californica AChE by Lineweaver-Burk plot; set-up: species or system Tetronarce californica
[6] = molecular target: Acetylcholinesterase (Homo sapiens) (UniProt P22303); assay: Inhibition of AChE in human SH-SY5Y cells assessed as enzyme activity at 1 uM after 1 hr by Ellman's method; assay type: cell-based; set-up: scale not given: the % may be the effect or the level left
[7] = Cytotoxicity against human SH-SY5Y cells assessed as LDH release at 1 uM after 24 hrs (reference value: 0.02 +/- 0.35%); assay type: cell-based
[8] = Cytotoxicity against human SH-SY5Y cells assessed as LDH release at 5 uM after 1 hr (reference value: -0.78 +/- 3.50%); assay type: cell-based
[9] = Cytotoxicity against human SH-SY5Y cells assessed as LDH release at 5 uM after 24 hrs (reference value: 0.02 +/- 0.35%); assay type: cell-based
[10] = Cytotoxicity against human SH-SY5Y cells assessed as LDH release at 1 uM after 1 hr (reference value: -0.78 +/- 3.50%); assay type: cell-based

Cholinesterase, sequence (P81908 whole entry): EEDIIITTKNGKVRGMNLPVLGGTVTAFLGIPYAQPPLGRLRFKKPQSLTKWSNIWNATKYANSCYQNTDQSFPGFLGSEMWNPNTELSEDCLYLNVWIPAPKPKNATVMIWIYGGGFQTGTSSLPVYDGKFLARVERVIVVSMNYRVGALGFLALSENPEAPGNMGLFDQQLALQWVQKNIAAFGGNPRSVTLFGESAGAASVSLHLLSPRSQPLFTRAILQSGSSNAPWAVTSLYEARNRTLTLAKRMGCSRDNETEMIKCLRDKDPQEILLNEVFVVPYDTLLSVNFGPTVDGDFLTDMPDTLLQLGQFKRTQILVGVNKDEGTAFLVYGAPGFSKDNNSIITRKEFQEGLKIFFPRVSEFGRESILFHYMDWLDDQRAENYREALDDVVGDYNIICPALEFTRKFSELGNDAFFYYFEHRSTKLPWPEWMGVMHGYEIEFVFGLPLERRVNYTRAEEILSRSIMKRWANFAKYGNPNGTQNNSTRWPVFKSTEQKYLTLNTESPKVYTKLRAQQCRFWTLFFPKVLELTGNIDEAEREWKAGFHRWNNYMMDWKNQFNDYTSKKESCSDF
T1 sequence (P04058 whole entry): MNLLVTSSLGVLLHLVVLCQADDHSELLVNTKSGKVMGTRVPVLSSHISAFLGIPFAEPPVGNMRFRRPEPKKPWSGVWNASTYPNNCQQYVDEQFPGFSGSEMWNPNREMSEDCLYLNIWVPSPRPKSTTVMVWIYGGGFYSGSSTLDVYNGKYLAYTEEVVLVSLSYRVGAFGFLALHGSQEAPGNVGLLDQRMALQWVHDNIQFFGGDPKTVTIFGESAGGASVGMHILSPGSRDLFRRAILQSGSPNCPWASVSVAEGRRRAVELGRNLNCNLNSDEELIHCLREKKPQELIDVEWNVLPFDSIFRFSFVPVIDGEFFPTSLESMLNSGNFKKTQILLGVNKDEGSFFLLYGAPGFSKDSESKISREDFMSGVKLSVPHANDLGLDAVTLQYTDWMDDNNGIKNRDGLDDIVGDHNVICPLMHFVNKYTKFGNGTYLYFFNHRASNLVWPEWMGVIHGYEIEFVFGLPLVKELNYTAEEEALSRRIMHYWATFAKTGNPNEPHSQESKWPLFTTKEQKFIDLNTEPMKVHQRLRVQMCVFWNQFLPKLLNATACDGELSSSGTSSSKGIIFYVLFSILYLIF

Row | Compound | Ratio IC50 [1] | IC50 (Acetylcholinesterase [2]) [µM] | IC50 (Cholinesterase) [µM] | other results
1 | C[C@@H](CC[C@H]1C(CO)=CC[C@H]2C(C)(C)CCC[C@]12C)CC(=O)OCCCN1CCCC1 | 1.3 | 33.8 | 43.8 | 
2 | CCN(CC)CCOC(=O)C[C@@H](C)CC[C@H]1C(CO)=CC[C@H]2C(C)(C)CCC[C@]12C | < 0.8 | > 50 | 39.9 | 
3 | C[C@@H](CC[C@H]1C(CO)=CC[C@H]2C(C)(C)CCC[C@]12C)CC(=O)OCCCCCCN1CCOCC1 |  | > 50 | > 50 | 
4 | C[C@@H](CC[C@H]1C(CO)=CC[C@H]2C(C)(C)CCC[C@]12C)CC(=O)OCCCCN1CCCC1 | 3.2 | 3.2 | 10.3 | Activity [3]: 30.4%; Activity [4]: Non-toxic; Ki (Acetylcholinesterase [5]): 4.6 µM; Activity [6]: 67.3%; Activity [7]: -0.02%; Activity [8]: 2.33%; Activity [9]: 0.11%; Activity [10]: 1.34%
5 | CCN(CC)CCCOC(=O)C[C@@H](C)CC[C@H]1C(CO)=CC[C@H]2C(C)(C)CCC[C@]12C | 1.5 | 11.8 | 18.1 | 
6 | C[C@@H](CC[C@H]1C(CO)=CC[C@H]2C(C)(C)CCC[C@]12C)CC(=O)OCCCCCCN1CCCCC1 | 0.7 | 14.5 | 10.5 | 
7 | C[C@@H](CC[C@H]1C(CO)=CC[C@H]2C(C)(C)CCC[C@]12C)CC(=O)OCCCCCN1CCCCC1 | 1.7 | 14.7 | 24.8 | 
8 | CCN(CC)CCCCCOC(=O)C[C@@H](C)CC[C@H]1C(CO)=CC[C@H]2C(C)(C)CCC[C@]12C | 2 | 13.8 | 27.2 | 
9 | CCN(CC)CCCCOC(=O)C[C@@H](C)CC[C@H]1C(CO)=CC[C@H]2C(C)(C)CCC[C@]12C | 1.8 | 9.4 | 23.6 | 
10 | C[C@@H](CC[C@H]1C(CO)=CC[C@H]2C(C)(C)CCC[C@]12C)CC(=O)O | 8.1 | 21.1 | 171 | 
11 | C[C@@H](CC[C@H]1C(CO)=CC[C@H]2C(C)(C)CCC[C@]12C)CC(=O)OCCCCCN1CCCC1 | 4.1 | 5.5 | 22.1 | 
12 | C[C@@H](CC[C@H]1C(CO)=CC[C@H]2C(C)(C)CCC[C@]12C)CC(=O)OCCCCCCN1CCCC1 | 0.8 | 13.5 | 10.6 | 
13 | C[C@@H](CC[C@H]1C(CO)=CC[C@H]2C(C)(C)CCC[C@]12C)CC(=O)OCCN1CCOCC1 |  | > 50 | > 50 | 
14 | C[C@@H](CC[C@H]1C(CO)=CC[C@H]2C(C)(C)CCC[C@]12C)CC(=O)OCCCCCN1CCOCC1 |  | > 50 | > 50 | 
15 | C[C@@H](CC[C@H]1C(CO)=CC[C@H]2C(C)(C)CCC[C@]12C)CC(=O)OCCCCN1CCOCC1 |  | > 50 | > 50 | 
16 | C[C@@H](CC[C@H]1C(CO)=CC[C@H]2C(C)(C)CCC[C@]12C)CC(=O)OCCN1CCCC1 | < 0.3 | > 50 | 17 | 
17 | CCN(CC)CCCCCCOC(=O)C[C@@H](C)CC[C@H]1C(CO)=CC[C@H]2C(C)(C)CCC[C@]12C | 0.9 | 17.8 | 15.2 | 
18 | C[C@@H](CC[C@H]1C(CO)=CC[C@H]2C(C)(C)CCC[C@]12C)CC(=O)OCCCN1CCCCC1 | 5.6 | 6.2 | 34.7 | 
19 | C[C@@H](CC[C@H]1C(CO)=CC[C@H]2C(C)(C)CCC[C@]12C)CC(=O)OCCCCN1CCCCC1 | 2.5 | 15 | 37.1 | 
20 | C[C@@H](CC[C@H]1C(CO)=CC[C@H]2C(C)(C)CCC[C@]12C)CC(=O)OCCN1CCCCC1 |  | > 50 | > 50 | 
21 | C[C@@H](CC[C@H]1C(CO)=CC[C@H]2C(C)(C)CCC[C@]12C)CC(=O)OCCCN1CCOCC1 |  | > 50 | > 50 | 
